# Test results as given in US11596150B2, “Long chain glycolipids useful to avoid perishing or microbial contamination of materials” (IMD NATURAL SOLUTIONS GMBH, priority 2011, dated 2023).
# Read-outs that look alike come from different tables or passages of the source.
# What was measured:
# [1] = system: Bacillus subtilis (ATCC6633); test: MIC determination in microtiter plates (non-pathogenic microorganisms); assay type: cell-based; details: 48 h, read-out: MIC values after 48 h
# [2] = system: Corynebacterium variabile (DSM20132); test: as above; assay type: cell-based; details: 48 h, read-out: MIC values after 48 h
# [3] = system: Lactobacillus plantarum (DSM 12028); test: as above; assay type: cell-based; details: Lactiplantibacillus plantarum; Lactobacillus plantarum (DSM12028); 48 h; read-out: MIC values after 48 h
# [4] = system: Aspergillus niger (ATCC 16404); test: as above; assay type: cell-based; details: Aspergillus niger (ATCC16404); 48 h; read-out: MIC values after 48 h
# [5] = system: Byssochlamys fulva (DSM62097); test: as above; assay type: cell-based; details: Paecilomyces fulvus, 48 h, read-out: MIC values after 48 h
# [6] = system: Mucor plumbeus (MUCL49355); test: as above; assay type: cell-based
# [7] = system: Dekkera bruxellensis (DSM70726); test: as above; assay type: cell-based; details: Brettanomyces bruxellensis, 48 h, read-out: MIC values after 48 h
# [8] = system: Dekkera naardenensis (DSM70743); test: as above; assay type: cell-based; details: Brettanomyces naardenensis, 48 h, read-out: MIC values after 48 h
# [9] = system: Saccharomyces cerevisiae (HT10); test: as above; assay type: cell-based; details: 48 h, read-out: MIC values after 48 h
# [10] = system: Zygosaccharomyces bailii (DSM70492); test: as above; assay type: cell-based; details: 48 h, read-out: MIC values after 48 h
# [11] = system: Zygosaccharomyces bisporus (DSM70415); test: as above; assay type: cell-based; details: 48 h, read-out: MIC values after 48 h
# [12] = system: Zygosaccharomyces florentinus (DSM70506); test: as above; assay type: cell-based; details: Zygotorulaspora florentina, 48 h, read-out: MIC values after 48 h
# [13] = system: Zygosaccharomyces rouxii (NCYC381); test: as above; assay type: cell-based; details: 48 h, read-out: MIC values after 48 h
# [14] = system: Staphylococcus aureus (ATCC 6538P); test: microbe, parasite or virus in culture; assay type: cell-based; details: ATCC6538P, Mueller-Hinton Broth, 1% DMSO, 20 hours at 36° C., read-out: MIC S. aureus
# [15] = system: Clostridium perfringens (ATCC 13124); test: microbe, parasite or virus in culture; assay type: cell-based; details: ATCC13124, 48 h
# [16] = system: Aspergillus fumigatus (ATCC 1028); test: microbe, parasite or virus in culture; assay type: cell-based
# [17] = system: Listeria welshimeri (DSM15452); test: MIC determination in microtiter plates (non-pathogenic microorganisms); assay type: cell-based; details: 48 h, read-out: MIC values after 48 h
# Description: Various nonpathogenic bacteria, yeasts, and filamentous fungi were obtained from public culture collections and maintained as recommended in the catalogues and protocols of the respective institutions. Saccharomyces cerevisiae strain HT10 and Mucor plumbeus were originally taken from the culture collection of InterMed Discovery GmbH but deposited with MUCL as reference strains for antimicrobial susceptibility testing. These strains were maintained under liquid nitrogen and, prior to the screening, on YMG agar. Prior to the screening the yeast and bacterial strains were grown over night on SDB (medium 1), except for Bacillus subtilis, which was grown on YMG agar (medium 2) for 1 week to prepare spore suspensions. Likewise, the filamentous fungi were pre-incubated on YMG agar for 2-3 weeks to create inoculum for spore suspensions. […] For all experiments, freshly prepared spore suspensions were used. The initial concentrations for the bioassays were adjusted to 1×10^5 CFU (i.e. cells or spores, respectively) per ml. […] To adjust the initial titer prior to the bioassays, the CFU per ml was determined under the microscope using a counting chamber type “Brand Neubauer improved”; BRAND GmbH & Co KG, Wertheim, Germany). This microscopic control also served as means for assessment of the viability of the cells. […]
# [18] = system: Talaromyces luteus (CBS348.51); test: MIC after 48 h (Example 9); assay type: cell-based; details: Ascospirella lutea
# [19] = system: Pyricularia oryzae (DSM62938); test: microbe, parasite or virus in culture; assay type: cell-based; details: DSM62938, 48 h, read-out: MIC values after 48 h
# [20] = system: Enterococcus faecalis (ATCC19433); test: MIC after 48 h (Example 9); details: ATCC19433, 48 h, read-out: MIC values after 48 h
# [21] = system: Listeria monocytogenes (ATCC19111); test: MIC after 48 h (Example 9); details: ATCC19111, 48 h, read-out: MIC values after 48 h
# Bacillus cereus = test: MIC / growth inhibition after 48 h (Example 9); details: ATCC11778, 48 h, read-out: MIC values after 48 h
# Candida albicans = test: MIC / growth inhibition after 48 h (Example 9); details: ATCC10231, 48 h, read-out: MIC values after 48 h
# Clostridium sporogenes = test: MIC / growth inhibition after 48 h (Example 9); details: ATCC3584, 48 h, read-out: MIC values after 48 h
compound,measurement,setting,value
CCCCC(CCCC(O)C(O)CCCCCCCCCCCCCCC(O)C(=O)O)OC1OCC(O)C(O)C1OC1OCC(O)C(O)C1OC1OC(COC(=O)CC(C)C)C(O)C(O)C1O (stereo not shown) [[12]],MIC,[1],1.6 µg/mL
same,MIC,[2],< 0.8 µg/mL
same,MIC,[3],25 µg/mL
same,MIC,[4],6.3 µg/mL
same,MIC,[5],6.3 µg/mL
same,MIC,"[6]; M. plumbeus (MUCL49355), SDB medium, day not given (Table 19)",100
same,MIC,"[6]; M. plumbeus (MUCL49355), SDB medium, day not printed (first line of Table 19)",50
same,MIC,"[6]; Mucor plumbeus (MUCL49355), 48 h, read-out: MIC values after 48 h",6.3 µg/mL
same,MIC,[7],6.3 µg/mL
same,MIC,[8],6.3 µg/mL
same,MIC,[9],6.3 µg/mL
same,MIC,[10],6.3 µg/mL
same,MIC,[11],12.5 µg/mL
same,MIC,[12],6.3 µg/mL
same,MIC,[13],6.3 µg/mL
same,MIC,[14],200 µg/mL
same,MIC,[15]; read-out: MIC C. perfringens,60 µg/mL
same,MIC,[15]; read-out: MIC values after 48 h,60 µg/mL
same,MIC,"[16]; Aspergillus fumigatus (ATCC1028), 48 h, read-out: MIC values after 48 h",20 µg/mL
same,MIC,"[16]; Aspergillus fumigatus, ATCC1028, 72 h, Potato Dextrose Broth, 1% DMSO, 3 days at 28° C., read-out: MIC A. fumigatus",20 µg/mL
same,MIC,[17],25 µg/mL
same,MIC,[18],25 µg/mL
same,MIC,[19],25 µg/mL
same,MIC,[20],50 µg/mL
same,MIC,[21],50 µg/mL
same,MIC,Bacillus cereus,12.5 µg/mL
same,MIC,Candida albicans,25 µg/mL
same,MIC,Clostridium sporogenes,50 µg/mL
